The results in this text go back to patent publication US20260315452A1, “PROTEASE INHIBITORS AND USES THEREOF” (priority 2023, published 2026).

One assay has as its target SARS-CoV-2 3CLpro (Severe acute respiratory syndrome coronavirus 2, UniProt P0DTD1). In words: biochemical. The following applies: inhibition of SARS-CoV-2 3CLpro; 15 nM 3CLpro, 25 μM fluorogenic substrate, 37° C.; read-out: Inhibitory Activity (IC50).
Another assay concerns SARS-CoV-2. In words: Anti-SARS-CoV-2 activity in A549 cells expressing the human ACE2 receptor (inhibition of SARS-CoV-2 replication). The settings on record: for antiviral potency in A549 cells in comparison with compound Ref-2: versus Ref-2 (FIG. 7); for EC50: Severe acute respiratory syndrome coronavirus 2, A549-ACE2, 24 h, read-out: Antiviral Activity (EC50). In kind it is cell-based.

Structures are written as SMILES. Counter-ions that a name gives are not always drawn. Bounds are passed on as bounds.

Regarding `Cn1cc(NC(=O)c2cc(Cl)cc([N+](=O)[O-])c2N[C@H]2CN(C(=O)c3cncc4ccccc34)CCC2(F)F)cn1` [Compound 41, (S)-5-chloro-2-((4,4-difluoro-1-(isoquinoline-4-carbonyl)piperidin-3-yl)amino)-N-(1-methyl-1H-pyrazol-4-yl)-3-nitrobenzamide], the half-maximal inhibitory concentration (IC50) on SARS-CoV-2 3CLpro was below 100 nM. In the assay on SARS-CoV-2, the “antiviral potency in A549 cells in comparison with compound Ref-2” value is given as “better antiviral potency” and the EC50 was below 100 nM.
With `CNC(=O)c1cc(Br)cc([N+](=O)[O-])c1N[C@H]1CN(C(=O)c2cncc3ccccc23)CC[C@H]1F` [Compound 88, 5-bromo-2-(((3S, 4R)-4-fluoro-1-(isoquinoline-4-carbonyl)piperidin-3-yl)amino)-N-methyl-3-nitrobenzamide], the IC50 on SARS-CoV-2 3CLpro was below 100 nM. Also, the EC50 in the assay with SARS-CoV-2 was below 100 nM.
Regarding `C[C@H](NC(=O)c1cc(Br)cc([N+](=O)[O-])c1N[C@@H]1COCC[C@@H]1NC(=O)c1cncc2ccccc12)C(F)(F)F` [Compound 135, N-((3S, 4S)-3-((4-bromo-2-nitro-6-(((S)-1,1,1-trifluoropropan-2-yl)carbamoyl)phenyl)amino)tetrahydro-2H-pyran-4-yl)isoquinoline-4-carboxamide], on SARS-CoV-2 3CLpro, the IC50 is below 100 nM. For the same molecule, the EC50 in the assay with SARS-CoV-2 is below 100 nM.
Take `CNC(=O)c1cc(Br)cc([N+](=O)[O-])c1NC1CN(C(=O)c2cncc3ccccc23)CC1(F)F` (centres unmarked) [Compound 18, 5-bromo-2-((4,4-difluoro-1-(isoquinoline-4-carbonyl)pyrrolidin-3-yl)amino)-N-methyl-3-nitrobenzamide]: the IC50 at SARS-CoV-2 3CLpro was in the range of 100 to 1000 nM. In addition, the EC50 in the assay on SARS-CoV-2 was in the range of 100 to 1000 nM.
In the case of `O=C(NC1CC(F)(F)C1)c1cc(Br)cc(C(F)(F)F)c1N[C@@H]1COCC[C@@H]1NC(=O)c1cncc2ccccc12` [Compound 79, N-((3S, 4S)-3-((4-bromo-2-((3,3-difluorocyclobutyl)carbamoyl)-6-(trifluoromethyl)phenyl)amino)tetrahydro-2H-pyran-4-yl)isoquinoline-4-carboxamide], on SARS-CoV-2 3CLpro, the IC50 is below 100 nM. The EC50 with SARS-CoV-2 is 100 to 1000 nM.
Taken in the same sequence, the figures for `O=C(NC1CC(F)(F)C1)c1cc(Br)cc([N+](=O)[O-])c1N[C@@H]1CCCN(C(=O)c2cncc3ccccc23)C1` [Compound 34, (R)-5-bromo-N-(3,3-difluorocyclobutyl)-2-((1-(isoquinoline-4-carbonyl)piperidin-3-yl)amino)-3-nitrobenzamide] were below 100 nM and below 100 nM.
For `O=C(NCC(F)(F)F)c1cc(Br)cc([N+](=O)[O-])c1N[C@@H]1CCCC[C@@H]1NC(=O)c1cncc2ccccc12` [Compound 59, N-((1S, 2R)-2-((4-bromo-2-nitro-6-((2,2,2-trifluoroethyl)carbamoyl)phenyl)amino)cyclohexyl)isoquinoline-4-carboxamide], in that order: 100 to 1000 nM and 100 to 1000 nM.
As for `C[C@@H](NC(=O)c1cc(Br)cc([N+](=O)[O-])c1N[C@@H]1CCCN(C(=O)c2cncc3ccccc23)C1)C(F)(F)F` [Compound 81, 5-bromo-2-(((R)-1-(isoquinoline-4-carbonyl)piperidin-3-yl)amino)-3-nitro-N-((R)-1,1,1-trifluoropropan-2-yl)benzamide], at SARS-CoV-2 3CLpro, the IC50 is below 100 nM. Also, the EC50 with SARS-CoV-2 is below 100 nM.
On to `O=C(NC1CC(F)(F)C1)c1cc(Cl)cc(C(F)(F)F)c1N[C@H]1CN(C(=O)c2cncc3ccccc23)CCC1(F)F` [Compound 82, (S)-5-chloro-2-((4,4-difluoro-1-(isoquinoline-4-carbonyl)piperidin-3-yl)amino)-N-(3,3-difluorocyclobutyl)-3-(trifluoromethyl)benzamide], for which, at SARS-CoV-2 3CLpro, the IC50 is below 100 nM. For the same molecule, in the assay on SARS-CoV-2, the EC50 is below 100 nM.
In the case of `CNC(=O)c1cc(Br)cc([N+](=O)[O-])c1N[C@H]1CN(C(=O)c2cncc3ccccc23)CC(F)(F)C1` [Compound 62, (R)-5-bromo-2-((5,5-difluoro-1-(isoquinoline-4-carbonyl)piperidin-3-yl)amino)-N-methyl-3-nitrobenzamide], the concentration for half-maximal inhibition (IC50) at SARS-CoV-2 3CLpro was in the range of 100 to 1000 nM. In the assay with SARS-CoV-2, the EC50 was in the range of 100 to 1000 nM.
As for `CNC(=O)c1cc(Cl)cc(C(F)(F)F)c1N[C@@H]1COCC[C@@H]1NC(=O)c1cncc2ccccc12` [Compound 146, N-((3S, 4S)-3-((4-chloro-2-(methylcarbamoyl)-6-(trifluoromethyl)phenyl)amino)tetrahydro-2H-pyran-4-yl)isoquinoline-4-carboxamide], at SARS-CoV-2 3CLpro, the IC50 lay within 100 to 1000 nM. In addition, the EC50 in the assay on SARS-CoV-2 is 100 to 1000 nM.
Consider `CN(C)C(=O)c1cc(Br)cc([N+](=O)[O-])c1N[C@H]1CN(C(=O)c2cncc3ccccc23)CCC1(F)F` [Compound 151, (S)-5-bromo-2-((4,4-difluoro-1-(isoquinoline-4-carbonyl)piperidin-3-yl)amino)-N, N-dimethyl-3-nitrobenzamide], for which the IC50 at SARS-CoV-2 3CLpro is below 100 nM. Further, in the assay on SARS-CoV-2, the “antiviral potency in A549 cells in comparison with compound Ref-2” value is recorded as “better antiviral potency” and the EC50 was below 100 nM.
As to `CNC(=O)c1cc(Br)cc([N+](=O)[O-])c1N[C@@H]1CCCC[C@@H]1NC(=O)c1cncc2cc(F)ccc12` [Compound 8, N-((1S, 2R)-2-((4-bromo-2-(methylcarbamoyl)-6-nitrophenyl)amino)cyclohexyl)-7-fluoroisoquinoline-4-carboxamide], the IC50 at SARS-CoV-2 3CLpro is below 100 nM. The EC50 in the assay on SARS-CoV-2 was in the range of 100 to 1000 nM.
Consider `O=C(NC1(C(F)(F)F)CC1)c1cc(Br)cc([N+](=O)[O-])c1N[C@@H]1CCCC[C@@H]1NC(=O)c1cncc2ccccc12` [Compound 16, N-((1S, 2R)-2-((4-bromo-2-nitro-6-((1-(trifluoromethyl)cyclopropyl)carbamoyl)phenyl)amino)cyclohexyl)isoquinoline-4-carboxamide], for which the IC50 on SARS-CoV-2 3CLpro was in the range of 100 to 1000 nM. The EC50 with SARS-CoV-2 fell in the range of 1000 to 10000 nM.
For the molecule `CN(C)C1CN(C(=O)c2cc(Cl)cc([N+](=O)[O-])c2N[C@H]2CN(C(=O)c3cncc4ccccc34)CCC2(F)F)C1` [Compound 94, (S)-(5-chloro-2-((4,4-difluoro-1-(isoquinoline-4-carbonyl)piperidin-3-yl)amino)-3-nitrophenyl)(3-(dimethylamino)azetidin-1-yl)methanone hydrochloride], the IC50 on SARS-CoV-2 3CLpro was below 100 nM. For the same molecule, the EC50 with SARS-CoV-2 was below 100 nM.
Take `O=C(c1cc(Br)cc([N+](=O)[O-])c1N[C@H]1CN(C(=O)c2cncc3ccccc23)CCC1(F)F)N1CC(F)(F)C1` [Compound 36, (S)-(5-bromo-2-((4,4-difluoro-1-(isoquinoline-4-carbonyl)piperidin-3-yl)amino)-3-nitrophenyl)(3,3-difluoroazetidin-1-yl)methanone]: the IC50 at SARS-CoV-2 3CLpro is below 100 nM. The EC50 in the assay on SARS-CoV-2 is below 100 nM.
With `CNC(=O)c1cc(Br)cc([N+](=O)[O-])c1N[C@@H]1CCCC[C@@H]1NC(=O)c1cncc2ccncc12` [Compound 55, N-((1S, 2R)-2-((4-bromo-2-(methylcarbamoyl)-6-nitrophenyl)amino)cyclohexyl)-2,6-naphthyridine-4-carboxamide], the IC50 at SARS-CoV-2 3CLpro fell in the range of 100 to 1000 nM. Also, the half-maximal effective concentration (EC50) in the assay on SARS-CoV-2 lay in the range of 100 to 1000 nM.
Consider `CNC(=O)c1cc(Br)cc([N+](=O)[O-])c1NC1CC2(C1)CN(C(=O)c1cncc3ccccc13)C2` [Compound 13, 5-bromo-2-((2-(isoquinoline-4-carbonyl)-2-azaspiro[3.3]heptan-6-yl)amino)-N-methyl-3-nitrobenzamide], for which the IC50 on SARS-CoV-2 3CLpro was at least 10000 nM. In addition, the EC50 with SARS-CoV-2 was above 10000 nM.
For `CC(C)(O)CNC(=O)c1cc(Br)cc([N+](=O)[O-])c1N[C@H]1CN(C(=O)c2cncc3ccccc23)CCC1(F)F` [Compound 154, (S)-5-bromo-2-((4,4-difluoro-1-(isoquinoline-4-carbonyl)piperidin-3-yl)amino)-N-(2-hydroxy-2-methylpropyl)-3-nitrobenzamide], in that order: below 100 nM and below 100 nM.
Taken in the same sequence, the figures for `CC(C)(C)NC(=O)c1cc(Br)cc([N+](=O)[O-])c1N[C@@H]1CCCC[C@@H]1NC(=O)c1cncc2ccccc12` [Compound 85, N-((1S, 2R)-2-((4-bromo-2-(tert-butylcarbamoyl)-6-nitrophenyl)amino)cyclohexyl)isoquinoline-4-carboxamide] were 100 to 1000 nM and 100 to 1000 nM.
For `CNC(=O)c1cc(Cl)cc([N+](=O)[O-])c1N[C@H]1CN(C(=O)c2cncc3ccccc23)CC[C@@H]1F` [Compound 96, 5-chloro-2-(((3S, 4S)-4-fluoro-1-(isoquinoline-4-carbonyl)piperidin-3-yl)amino)-N-methyl-3-nitrobenzamide], in that order: below 100 nM and below 100 nM.
Regarding `CNC(=O)c1cc(Br)cc([N+](=O)[O-])c1N[C@H]1CN(C(=O)c2cncc3ccccc23)CC12CC2` [Compound 74, (R)-5-bromo-2-((5-(isoquinoline-4-carbonyl)-5-azaspiro[2,4]heptan-7-yl)amino)-N-methyl-3-nitrobenzamide], the IC50 at SARS-CoV-2 3CLpro lay within 100 to 1000 nM. In the assay with SARS-CoV-2, the EC50 is below 100 nM.
Regarding `CN1CC[C@@H](NC(=O)c2cc(Br)cc([N+](=O)[O-])c2N[C@H]2CN(C(=O)c3cncc4ccccc34)CCC2(F)F)C1` [Compound 45, 5-bromo-2-(((S)-4,4-difluoro-1-(isoquinoline-4-carbonyl)piperidin-3-yl)amino)-N-((R)-1-methylpyrrolidin-3-yl)-3-nitrobenzamide hydrochloride], on SARS-CoV-2 3CLpro, the IC50 is below 100 nM. Besides, the EC50 with SARS-CoV-2 is below 100 nM.
`O=C(NC1CC(F)(F)C1)c1cc(Br)cc(C(F)(F)F)c1N[C@H]1CN(C(=O)c2cncc3ccccc23)CCC1(F)F` [Compound 144, (S)-5-bromo-2-((4,4-difluoro-1-(isoquinoline-4-carbonyl)piperidin-3-yl)amino)-N-(3,3-difluorocyclobutyl)-3-(trifluoromethyl)benzamide]: the IC50 at SARS-CoV-2 3CLpro is below 100 nM. In addition, the EC50 with SARS-CoV-2 was below 100 nM.

The term IC50 denotes the point on the concentration scale where inhibition reaches its midpoint. Usually EC50 stands for the concentration needed to bring the measured effect to its halfway point.
